These results are taken from patent US20070286888A1, “Additive For Feeds And Feed Containing The Same” (Kabushiki Kaisha Yakult Honsha, priority 2004, published 2007).

For assay [1], the system named is five Lactobacillus bacterial stains (A) and (B). The assay is described as follows: Antibiotic resistance test, all five strains. The format is cell-based. The protocol:
(§1) The 11 antibiotics shown in Table 3 were separately added at concentrations of 100, 10, 1, 0.1, and 0 μg/ml, to thereby prepare MRS agar mediums (manufactured by Difco). Subsequently, cell culture solutions of the five bacterial stains (A) and (B) obtained in Production Example 1 (10 μl each) were separately inoculated into the respective antibiotic-containing MRS mediums (the cell number of each bacterial strain: about 1·10^8 cells/ml), followed by smear culture at 37° C. for 48 hours under anaerobic conditions. The proliferated bacteria were evaluated with the naked eye, and the […] for each antibiotic (μg/ml) were calculated.

A short description of assay [2]: Proliferative activity test in skim milk media. The class given is cell-based. Also noted: key to Proliferative activity 24 hours later SM / Proliferative activity 24 hours later YE / Proliferative activity 24 hours later P / Proliferative activity 24 hours later YP / Proliferative activity 48 hours later SM / Proliferative activity 48 hours later YE / Proliferative activity 48 hours later P / Proliferative activity 48 hours later YP: ∘: completely solidified culture solution due to proliferated cells; Δ: semifluid culture solution with slightly proliferated cells; x: liquid culture solution with unproliferated cells. The note with it: for Proliferative activity 24 hours later P / Proliferative activity 48 hours later P: 0.1% peptone +10% skim milk; for Proliferative activity 24 hours later P / Proliferative activity 48 hours later P / Proliferative activity 24 hours later YP / Proliferative activity 48 hours later YP / Proliferative activity 24 hours later YE / Proliferative activity 48 hours later YE / Proliferative activity 24 hours later SM / Proliferative activity 48 hours later SM: 37° C.; for Proliferative activity 24 hours later YP / Proliferative activity 48 hours later YP: 0.1% yeast extract +0.1% peptone +10% skim milk; for Proliferative activity 24 hours later YE / Proliferative activity 48 hours later YE: 0.1% yeast extract +10% skim milk; for Proliferative activity 24 hours later SM / Proliferative activity 48 hours later SM: 10% skim milk. The protocol:
Four mediums, i.e., 10% skim milk (SM), 0.1% yeast extract (manufactured by Difco) +10% skim milk (YE), 0.1% peptone (manufactured by Difco) +10% skimmilk (P), and 0.1% yeast extract (manufactured by Difco) +0.1% peptone (manufactured by Difco) +10% skimmilk (YP) were subjected to high-pressure heat sterilization at 115° C. for 15 minutes, and then cell culture solutions of the five bacterial stains (A) and (B) obtained in Production Example 1 above (30 μl each) were separately inoculated into 3 ml of the respective mediums (the cell number of each bacterial strain: about 3·10^8 cells/ml), followed by culture at 37° C. for 24 hours and 48 hours. For proliferative activity tests, the culture solutions were evaluated based on the following criteria: completely solidified culture solution due to proliferated cells: “∘”; semifluid culture solution with slightly proliferated cells: “Δ”; and liquid culture solution with unproliferated cells: “x”.

The subject of assay [3] is horse gastric mucosal epithelial cell. Put plainly: Cell adhesion test to horse gastric mucosal epithelial cell. Conditions: for Adhesion of bacteria to horse gastric mucosal epithelial cell: cells adhered to one gastric mucosal epithelial cell, 37° C., Giemsa stain. The class given is cell-based. The protocol:
Meanwhile, gastric mucosal epithelial tissue pieces (1 cm^2) taken from a horse were added to 3 ml (the cell number of each bacterial strain: about 3·10^8 cells/ml) of cell culture solutions of the five bacterial stains (A) and (B) obtained in Production Example 1 above, followed by culture with shaking at 37° C. Then, the gastric mucosal epithelial tissue pieces were washed with a buffer (composition: 0.8% NaCl; 0.121% K2HPO4; 0.034% KH2PO4; pH 7.2) several times, and the gastricmucosal epithelial cells were scraped off from the gastric mucosal epithelial tissue pieces under a stereomicroscope, followed by Giemsa stain. The resultant cells were used to count the number of cells of each bacterial strain that adhered to one gastric mucosal epithelial cell under a microscope, and the adhesion was evaluated.

A short description of assay [4]: Proliferative Activity Test 1 in presence of oxytetracycline hydrochloride. The class given is cell-based. On the set-up: key: ∘: fully proliferated; Δ: slightly proliferated; x: unproliferated. Conditions: MRS agar, 37° C., 48 hours, anaerobic. The protocol: (§2) Meanwhile, the proliferative activity test in the presence of an antibiotic was performed using cell culture solutions containing (A) L. equi YIT0483 strain and (B) at least one selected from the four Lactobacillus strains in combination.
(§3) MRS agar mediums (manufactured by Difco) to which oxytetracycline hydrochloride was added as an antibiotic at concentrations of 10, 5, 2, and 0 µg/ml were prepared. Subsequently, a cell culture solution of only (A) L. equi strain and a mixed cell culture solution of (A) L. equi strain and (B) L. reuteri strain (10 μl each) were separately inoculated into the respective antibiotic-containing MRS mediums (the cell number of each bacterial strain: about 1·10^6 cells/ml), followed by smear culture at 37° C. for 48 hours under anaerobic conditions. Then, the proliferative activities of the bacteria were evaluated with the naked eye.

Assay [5] can be described thus: Proliferative Activity Test 2 in presence of gentamicin. The format is cell-based. On the set-up: key: ∘: fully proliferated; Δ: slightly proliferated; x: unproliferated. The note with it: MRS agar, 37° C., 48 hours, anaerobic. The protocol: as §2
as §3, with “gentamicin” for “oxytetracycline hydrochloride”, “100, 50, 20,” for “10, 5, 2,”, “μg/ml” for “µg/ml”, “johnsonii” for “reuteri”

A short description of assay [6]: Proliferative Activity Test 3 in presence of ofloxacin. The format is cell-based. On the set-up: key: ∘: fully proliferated; Δ: slightly proliferated; x: unproliferated. Conditions: MRS agar, 37° C., 48 hours, anaerobic. The protocol: as §2
as §3, with “ofloxacin” for “oxytetracycline hydrochloride”, “100, 50, 20,” for “10, 5, 2,”, “μg/ml” for “µg/ml”, “johnsonii strain or L. equi strain and L. crispatus” for “reuteri”

Assay [7] deals with L. reuteri YIT0480 strain. Put plainly: Antibiotic resistance test, L. reuteri. The format is cell-based, Lactobacillus reuteri. The protocol: as §1
Assay [8] concerns L. equi YIT0483 strain. The assay is described as follows: Antibiotic resistance test, L. equi. The class given is cell-based, Lactobacillus equi. The protocol: as §1

For the compound `CN[C@@H]1[C@H](O[C@H]2[C@H](O[C@H]3[C@H](O)[C@@H](O)[C@H](NC(=N)N)[C@@H](O)[C@@H]3NC(=N)N)O[C@@H](C)[C@]2(O)CO)O[C@@H](CO)[C@H](O)[C@H]1O` [Dihydrostreptomycin], the “Resistance of the strains to the antibiotic (in words)” value (shortened to “Resistance of the strains”) in assay [1] was “excellent resistance”.
For “Lactobacillus equi YIT0483 strain [(A) L. equi YIT0483 strain]”, in assay [2], the “Proliferative activity 24 hours later P” value is “∘”, the “Proliferative activity 48 hours later P” value is recorded as “∘”, the “Proliferative activity 24 hours later YP” value is given as “∘” and the “Proliferative activity 48 hours later YP” value was “∘”. Further, in assay [2], the “Proliferative activity 24 hours later YE” value is “∘”, the “Proliferative activity 48 hours later YE” value was “∘”, the “Proliferative activity 24 hours later SM” value is given as “∘” and the “Proliferative activity 48 hours later SM” value is given as “∘”. Besides, the “Proliferative activity (in words)” value in assay [2] (under the respective medium conditions) is given as “excellent proliferative activity”. In assay [3], the “Adhesion to horse gastric mucosal epithelial cells (in words)” value is reported as “excellent” and the “Adhesion of bacteria to horse gastric mucosal epithelial cell” value (“Adhesion of bacteria” for short) is on record as “++ (10-99 cells adhered to one gastric mucosal epithelial cell)”. In addition, the “Proliferative activity, Oxytetracycline 0 μg/ml” value in assay [4] (oxytetracycline 0 μg/ml) is “∘”. In assay [4] (oxytetracycline 2 μg/ml), the “Proliferative activity, Oxytetracycline 2 μg/ml” value is recorded as “x”. Also, in assay [4] (oxytetracycline 5 μg/ml), the “Proliferative activity, Oxytetracycline 5 μg/ml” value was “x”. The “Proliferative activity, Oxytetracycline 10 μg/ml” value in assay [4] (oxytetracycline 10 μg/ml) is on record as “x”. The “Proliferative activity, Genatmicin 0 μg/ml” value in assay [5] (gentamicin 0 μg/ml) is “∘”. For the same compound, the “Proliferative activity, Genatmicin 20 μg/ml” value in assay [5] (gentamicin 20 μg/ml) was “Δ”. Besides, the “Proliferative activity, Genatmicin 50 μg/ml” value in assay [5] (gentamicin 50 μg/ml) is “x”. Also, the “Proliferative activity, Genatmicin 100 μg/ml” value in assay [5] (gentamicin 100 μg/ml) is “x”. Further, the “Proliferative activity, Ofloxacin 0 μg/ml” value in assay [6] (ofloxacin 0 μg/ml) was “∘”. Also, the “Proliferative activity, Ofloxacin 20 μg/ml” value in assay [6] (ofloxacin 20 μg/ml) was “x”. For the same compound, the “Proliferative activity, Ofloxacin 50 μg/ml” value in assay [6] (ofloxacin 50 μg/ml) is recorded as “x”. Moreover, the “Proliferative activity, Ofloxacin 100 μg/ml” value in assay [6] (ofloxacin 100 μg/ml) is “x”.
For the compound `CC1(C)S[C@@H]2[C@H](NC(=O)Cc3ccccc3)C(=O)N2[C@H]1C(=O)O` [Benzylpenicillin], in assay [7], the “Resistance of the strain to the antibiotic (in words)” value is recorded as “stronger resistance”.
On to `CC1(C)S[C@@H]2[C@H](NC(=O)[C@H](N)c3ccccc3)C(=O)N2[C@H]1C(=O)O` [Ampicillin], for which, in assay [7], the “Resistance of the strain to the antibiotic (in words)” value is listed as “particularly excellent resistance”.
With `COc1cc(NS(=O)(=O)c2ccc(N)cc2)ncn1` [Sulfamonomethoxine], the “Resistance of the strains” value in assay [1] is on record as “excellent resistance”.
On to “Lactobacillus johnsonii YIT0482 strain [(B) L. johnsonii YIT0482 strain]”, for which, in assay [2], the “Proliferative activity 24 hours later P” value is “∘”, the “Proliferative activity 48 hours later P” value was “∘”, the “Proliferative activity 24 hours later YP” value is “∘” and the “Proliferative activity 48 hours later YP” value is reported as “∘”. In assay [2], the “Proliferative activity 24 hours later YE” value is recorded as “∘”, the “Proliferative activity 48 hours later YE” value is reported as “∘”, the “Proliferative activity 24 hours later SM” value is recorded as “x” and the “Proliferative activity 48 hours later SM” value is “x”. For the same compound, the “Adhesion of bacteria” value in assay [3] is recorded as “+ (1-9 cells adhered to one gastric mucosal epithelial cell)”.
Bactramin: in assay [1], the “Resistance of the strains” value is given as “excellent resistance”.
As to `CC(=O)OCC1=C(C(=O)O)N2C(=O)[C@@H](NC(=O)Cc3cccs3)[C@H]2SC1` [Cefalotin sodium], the “Resistance of the strain to the antibiotic (in words)” value in assay [7] is “particularly excellent resistance”.
Take “Lactobacillus crispatus YIT0481 strain [(B) L. crispatus YIT0481 strain]”: in assay [2], the “Proliferative activity 24 hours later P” value is listed as “∘”, the “Proliferative activity 48 hours later P” value was “∘”, the “Proliferative activity 24 hours later YP” value is given as “∘” and the “Proliferative activity 48 hours later YP” value was “∘”. Besides, in assay [2], the “Proliferative activity 24 hours later YE” value is reported as “∘”, the “Proliferative activity 48 hours later YE” value was “∘”, the “Proliferative activity 24 hours later SM” value is reported as “x” and the “Proliferative activity 48 hours later SM” value is recorded as “∘”. Further, the “Adhesion of bacteria” value in assay [3] is given as “+ (1-9 cells adhered to one gastric mucosal epithelial cell)”.
For “Lactobacillus reuteri YIT0480 strain [(B) L. reuteri YIT0480 strain]”, in assay [2], the “Proliferative activity 24 hours later P” value is given as “∘”, the “Proliferative activity 48 hours later P” value is on record as “∘”, the “Proliferative activity 24 hours later YP” value is listed as “∘” and the “Proliferative activity 48 hours later YP” value was “∘”. Besides, in assay [2], the “Proliferative activity 24 hours later YE” value is on record as “∘”, the “Proliferative activity 48 hours later YE” value was “∘”, the “Proliferative activity 24 hours later SM” value is reported as “x” and the “Proliferative activity 48 hours later SM” value is given as “x”. Moreover, the “Adhesion of bacteria” value in assay [3] is “+ (1-9 cells adhered to one gastric mucosal epithelial cell)”.
Consider `CO/N=C(\C(=O)N[C@@H]1C(=O)N2C(C(=O)O)=C(CSc3nc(=O)c(=O)[nH]n3C)CS[C@H]12)c1csc(N)n1` [Ceftriaxone sodium], for which the “Resistance of the strain to the antibiotic (in words)” value in assay [8] is listed as “excellent specific resistance”.
Regarding “Lactobacillus salivarius YIT0479 strain [(B) L. salivarius YIT0479 strain]”, in assay [2], the “Proliferative activity 24 hours later P” value is on record as “∘”, the “Proliferative activity 48 hours later P” value is reported as “∘”, the “Proliferative activity 24 hours later YP” value is listed as “∘” and the “Proliferative activity 48 hours later YP” value was “∘”. In assay [2], the “Proliferative activity 24 hours later YE” value was “∘”, the “Proliferative activity 48 hours later YE” value is listed as “∘”, the “Proliferative activity 24 hours later SM” value was “x” and the “Proliferative activity 48 hours later SM” value was “∘”. Also, the “Adhesion of bacteria” value in assay [3] is on record as “++ (10-99 cells adhered to one gastric mucosal epithelial cell)”.
